Data from patent publication US7572923B2, “Indirubin derivatives having anticancer property against human cancer cell line” (Anygen Co., Ltd., priority 2004, dated 2009).

What was measured:
[1] = tested on: human lung cancer cell line (A549); test: Inhibition of cancer cell line proliferation, A549; type: cell-based; conditions: 96 h, 3˜4 days incubation, absorbance at 515 nm
Method: (§1) For measuring the proliferation inhibition by indirubin compound, the method disclosed in K. Likhitwitayawuid et al. Journal. Nat. Prod. […] Followings are simple description of this method. The cancer cell line is diluted into 5×10^4 cfu/ml. Then, various concentrations of test compounds are added to 96 well microtiter plate containing diluted cell line. After incubating test plate for 3˜4 days at 37° C., the test plate is dried and Tris-base is added. Then, using ELISA plate detector, the absorbance at 515 nm is measured. IC50 is measured by non-linear regression method.

[2] = tested on: human abdominal cavity cancer cell line (HT 1080); test: Inhibition of cancer cell line proliferation, HT 1080; type: cell-based; conditions: HT-1080, 96 h, HT108, 3˜4 days incubation, absorbance at 515 nm
Method: as §1

[3] = tested on: human leukemia cell line (HL-60); test: Differentiation with low concentration 1,25-(OH)2D3 or ATRA, NBT reduction method; type: cell-based
Method: (§2) For measuring the differentiation inducing effect to acute bone merrow leukemia cell line (HL-60) by indirubin AGM compound, NBT (nitroblue tetrazolium) reduction reaction method is employed. The leukemia cell line is diluted into 2×10^5 cfu/ml. After treating 20 μM and 1 μM concentrations of test compounds, test plate is incubated for 3 days at 37° C. in 5% CO2 incubator. Incubated cells are washed with phosphate buffered saline (PBS). Then, they are further incubated in PBS solution containing 0.1% NBT and 200 ng/ml of PMA (phorbol 12-myristate 13-acetate) for 30 minutes at 37° C. Incubated cells are centrifuged and collected cells are washed with PBS solution. Using cell number counter, differentiated cells forming nitroblue formazan among total cells are counted.
Next, we test if AGM compound of present invention can synergically induce the differentiation of acute bone merrow leukemia cell line when it is treated with low concentration of 1,25-dihydroxyvitamin D3[1,25-(OH)2D3] or all-trans retinoic acid (ATRA) known as differentiation inducing agent. […] […] As a positive control, conventional differentiation inducing agent is used.

[4] = tested on: human colon cancer cell line (Col2); test: Inhibition of cancer cell line proliferation, Col2; type: cell-based; conditions: 96 h, 3˜4 days incubation, absorbance at 515 nm
Method: as §1

[5] = tested on: human cancer cell line; test: Inhibition of cancer cell line proliferation, overall conclusion; type: cell-based; conditions: conclusion from Table 2
Method: as §1

[6] = tested on: leukemia cell line (HL-60); test: Differentiation inducing effect, NBT reduction method; type: cell-based, human; conditions: for % of Differentiation: 3 days
Method: as §2, with “After treating 20 μM and 1 μM concentrations of test compounds, test plate is incubated for 3 days at 37° C. in 5% CO2 incubator.” left out

[7] = tested on: human stomach cancer cell line (SNU-638); test: Inhibition of cancer cell line proliferation, SNU-638; type: cell-based; conditions: 96 h, 3˜4 days incubation, absorbance at 515 nm
Method: as §1

[8] = tested on: human leukemia cell line (HL-60); test: Inhibition of cancer cell line proliferation, HL-60; type: cell-based; conditions: HL-60, 96 h, HL60, 3˜4 days incubation, absorbance at 515 nm
Method: as §1

[9] = tested on: human cell line (HT 1080); test: Inhibition of cancer cell line proliferation, HT 1080; type: cell-based; conditions: HT-1080, 96 h, read-out: IC50 HT108
Method: as §1

[10] = 1 μM compound with 5 nM of 1,25-(OH)2D3
[11] = 1 μM compound with 50 nM of ATRA

IC50 [1] [µM]	IC50 [2] [µM]	IC50 [4] [µM]	IC50 [7] [µM]	IC50 [8] [µM]	IC50 [9] [µM]	Structure (SMILES)	% of Differentiation, 1,25-(OH)2D3 [3, 10] [%]	% of Differentiation, all-trans RA [3, 11] [%]	inhibitor against proliferation of human cancer cell line [5]	% of Differentiation ([6]; 1 μM compound) [%]	% of Differentiation ([6]; 20 μM compound) [%]	induction of differentiation ([6]; at 20 μM concentration)	cytotoxicity [3]	induction of differentiation with conventional differentiation inducing agent ([3]; 0.2 μM)	% of Differentiation, 1,25-(OH)2D3 ([3]; 0.2 μM compound with 5 nM of 1,25-(OH)2D3) [%]	% of Differentiation, all-trans RA ([3]; 0.2 μM compound with 50 nM of ATRA) [%]	% of Differentiation ([6]; 0.2 μM compound) [%]
12.1	10.8	16.8	6.22	4.81		O=C1Nc2ccc(Cl)cc2C1=C1Nc2ccccc2C1=NO [AGM014, 5′-chloro-1H,1′H-[2,3′] biindolylidene-3,2′-dione 3-oxime]	21.72 ± 1.22	72.40 ± 3.05	effective inhibitor	40.97 ± 1.19							
33.2		31.2	21.1	59.3	5.41	Nc1ccc2c(c1)C(=C1Nc3ccccc3C1=O)C(=O)N2 [AGM029, 5′-amino-1H,1′H-[2,3′] biindolylidene-3,2′-dione]	79.03 ± 0.55	78.81 ± 0.77	effective inhibitor	45.05 ± 0.59		excellently induces the differentiation					
> 100		> 100	> 100	> 100	> 100	Cc1cc(Cl)cc2c1NC(=O)C2=C1Nc2ccccc2C1=O [AGM028, 5′-chloro-7′-methyl-1H,1′H-[2,3′] biindolylidene-3,2′-dione]	35.22 ± 0.55	55.57 ± 1.11		8.85 ± 2.20	0.70 ± 0.16						
> 100		> 100	> 100	> 100	> 100	Cc1cc(Cl)cc2c1NC(=O)C2=C1Nc2ccccc2C1=NO [AGM017, 5′-chloro-7′-methyl-1H,1′H-[2,3′] biindolylidene-3,2′-dione 3-oxime]	22.10 ± 0.90	43.17 ± 1.56		8.37 ± 0.45	2.62 ± 0.23						
> 100		> 100	> 100	> 100	> 100	O=C1Nc2ccc(Cl)cc2C1=C1Nc2ccccc2C1=O [AGM025, 5′-chloro-1H,1′H-[2,3′] biindolylidene-3,2′-dione]	49.41 ± 0.08	48.39 ± 1.48		26.18 ± 0.59	14.40 ± 0.82						
20.4	36.7	> 100	17.6	65.4		Cc1ccc2c(c1)C(=C1Nc3ccccc3C1=NO)C(=O)N2 [AGM013, 5′-methyl-1H,1′H-[2,3′] biindolylidene-3,2′-dione 3-oxime]	35.49 ± 5.45	70.54 ± 2.17		26.22 ± 2.04							
> 100		> 100	> 100	> 100	> 100	O=C1Nc2ccc(I)cc2C1=C1Nc2ccccc2C1=O [AGM026, 5′-iodo-1H,1′H-[2,3′] biindolylidene-3,2′-dione]	44.43 ± 0.09	60.33 ± 0.51		29.84 ± 1.12	22.23 ± 0.60						
> 100		> 100	> 100	> 100	> 100	Cc1cc(C)c2c(c1)C(=C1Nc3ccccc3C1=O)C(=O)N2 [AGM027, 5′,7′-dimethyl-1H,1′H-[2,3′] biindolylidene-3,2′-dione]	21.74 ± 1.90	43.19 ± 1.73		9.45 ± 0.92	4.75 ± 0.41						
23.2	4.41	44.2	12.1	69.3		O=C1Nc2ccc([N+](=O)[O-])cc2C1=C1Nc2ccc(Br)cc2C1=NO [AGM023, 5-bromo-5′-nitro-1H,1′H-[2,3′] biindolylidene-3,2′-dione 3-oxime]			effective inhibitor				some cytotoxicity	high induction of differentiation	89.76 ± 0.88	90.85 ± 0.36	18.38 ± 0.27
9.13		24.6	10	13	5.07	Nc1ccc2c(c1)C(=C1Nc3ccccc3C1=NO)C(=O)N2 [AGM031, 5′-amino-1H,1′H-[2,3′] biindolylidene-3,2′-dione-3-oxime]											
> 100	> 100	> 100	> 100	> 100		O=C1Nc2ccc(I)cc2C1=C1Nc2ccccc2C1=NO [AGM015, 5′-iodo-1H,1′H-[2,3′] biindolylidene-3,2′-dione 3-oxime]	33.27 ± 0.75	67.41 ± 1.36		30.50 ± 4.97							
> 100	> 100	> 100	> 100	> 100		O=C1Nc2ccccc2C1=C1Nc2ccc(Br)cc2C1=O [AGM021, 5-bromo-1H,1′H-[2,3′] biindolylidene-3,2′-dione]	24.64 ± 0.65	28.23 ± 0.02		11.63 ± 3.48	9.64 ± 0.51						
38.6	73.6	10.5	32.9	25		O=C1Nc2ccccc2C1=C1Nc2ccc(Br)cc2C1=NO [AGM018, 5-bromo-1H,1′H-[2,3′] biindolylidene-3,2′-dione 3-oxime]	36.52 ± 1.27	23.13 ± 0.71		8.69 ± 4.95							

Structure (SMILES)	IC50 [1] [µM]	IC50 [2] [µM]	IC50 [4] [µM]	IC50 [7] [µM]	IC50 [8] [µM]	IC50 [9] [µM]	% of Differentiation, 1,25-(OH)2D3 [3, 10] [%]	% of Differentiation, all-trans RA [3, 11] [%]	inhibitor against proliferation of human cancer cell line [5]	% of Differentiation ([6]; 1 μM compound) [%]	% of Differentiation ([6]; 20 μM compound) [%]	induction of differentiation ([6]; at 20 μM concentration)	cytotoxicity [3]	induction of differentiation with conventional differentiation inducing agent ([3]; 0.2 μM)	% of Differentiation, 1,25-(OH)2D3 ([3]; 0.2 μM compound with 5 nM of 1,25-(OH)2D3) [%]	% of Differentiation, all-trans RA ([3]; 0.2 μM compound with 50 nM of ATRA) [%]	% of Differentiation ([6]; 0.2 μM compound) [%]
O=C1Nc2ccc(F)cc2C1=C1Nc2ccccc2C1=O [AGM010, 5′-fluoro-1H,1′H-[2,3′] biindolylidene-3,2′-dione]	96.8		> 100	40.3	> 100	> 100	78.44 ± 6.88	75.08 ± 6.80		7.53 ± 1.02	13.01 ± 0.14						
Cc1ccc2c(c1)C(=C1Nc3ccccc3C1=O)C(=O)N2 [AGM024, 5′-methyl-1H,1′H-[2,3′] biindolylidene-3,2′-dione]	> 100		> 100	> 100	> 100	> 100	41.66 ± 0.40	51.01 ± 0.88		24.89 ± 6.06	14.38 ± 0.42						
